Experimental data from patent US20100184653A1, “Derivates of Polyethylene Glycol Modified Thymosin Alpha 1” (Jiangsu Hansen Pharmaceutical Co., Ltd., priority 2008, published 2010).
Residues, ends and D or L forms follow the SMILES beside them. No end group written: not given here.

Experiments:
[1] = Pharmacokinetic test, half life after hypodermic injection; conditions: in vivo, subcutaneous
[2] = in body; cited from earlier work
[3] = test system: T-lymphocytes (mice's spleen cells); test: ConA-induced IFN-γ production by mouse spleen T lymphocytes, ELISA of culture supernatant; format: cell-based, ICR mice; set-up: Mean (IFN-γ, ConA-induced cytokine production): unit not given here; conditions: for Mean (IFN-γ, ConA-induced cytokine production): 24 hours
Description: (§1) With Zadaxin as a positive control, the effect of the samples on T-lymphocytes producing cytokines were tested to confirm if the samples could adjust T-lymphocyte immune activity and the extent thereof.
(§2) In the lymphocytes cultured in vitro, T cell can be activated by the stimulation of mitosis Concanavalin A and brings change of cells' behavior such as cytokine synthesis, cytokine receptor expression, cell differentiation and cell proliferation. The generation of cytokine and proliferation of the cell are response of the immune cell function and cell activation. Detection means is reliable, simple, and with good repeatability, therefore, evaluating the samples' effect to the function of T lymphocytes by detecting cytokine generation and cell proliferation has been widely applied.
(§3) Preparation of spleen cell suspension: mice's spleen was obtained under aseptic condition, which was ground with frosted glass. The spleen cell suspension was thus obtained. After red blood lysis, the spleen cell suspension was washed three times, counted (live cells being more than 95%). The concentration of spleen cell was adjusted to 5×10^6 cells/ml with 10% FBS (bovine serum) RPMI1640 culture fluid.
(§4) The concentration of mice's Spleen cells was adjusted to 5×10^6 cells/ml, and then distributed it into 24 wells plate with 1 ml/well; samples with various concentrations were added into the plate respectively with 0.5 ml/well; and then ConA (20 ug/ml) was added with 0.5 ml/well. The samples were kept at 37° C. in CO2 incubator for 24 hours, centrifuged and collected culture supernatant.
(§5) Antibody Coating: The antibody was diluted with coating buffer and then was added into 96 well ELISA plates with 50 μL each wells. The plate was left overnight at […].
(§6) Blocking: The antibody coating buffer was removed, and the plate was washed 3 times with washing solution (PBS/Tween solution). 100 μL of blocking buffer (PBS/10% FBS) was added to each wells of the plates. The plate was incubated at room temperature for 1 hour.
(§7) Standards and samples: The blocking buffer was removed from the plates, which was washed 3 times with washing solution (PBS/Tween solution) and followed by adding standards and samples with 50 μL each wells. The plate was incubated at room temperature for 2 hours.
(§8) Detection of Antibody and Enzyme: The standards and samples were removed from the plates. The plate was washed 3 times with washing solution (PBS/Tween solution). The diluted detective antibody and enzyme HRP were added into the plate with 50 μL each wells. The plate was incubated at room temperature for 1 hour.
(§9) Substrate Staining: The diluted detection antibody and enzyme HRP were removed from the plate which was then washed 3 times with washing solution (PBS/Tween solution). The substrate resolved in citricic acid/hydrogen peroxide (TMB) was added into the plate with 50 μL each wells. The plate was incubated at room temperature away from the light for 30 minutes. After being stained, stop solution 2N H2SO4 was added into the plate with 25 μL per well.
(§10) OD Detection: The plate was placed into enzyme-labeled instrument and read OD values at 450 nm (calibrated value of 570 nm).

[4] = test system: T-lymphocytes (mice's spleen cells); test: ConA-induced IL-2 production by mouse spleen T lymphocytes, ELISA of culture supernatant; format: cell-based, ICR mice; set-up: unit not given here; conditions: 24 hours
Description: as §1, §2, §3, §4, §5, §6, §7, §8, §9, §10

Compound	half-life [1] [min]	T1/2 [2] [h]	activity of promoting the production of IFN-r by T cells ([3]; all experimental concentrations)	promoting the production of IFN-r by T cells ([3]; compared with PEG-TA1)	Mean (IFN-γ, ConA-induced cytokine production) ([3]; sample 0.001 ug/ml)	Mean (IFN-γ, ConA-induced cytokine production) ([3]; sample 0.01 ug/ml)	Mean (IFN-γ, ConA-induced cytokine production) ([3]; sample 0.1 ug/ml)	Mean (IFN-γ, ConA-induced cytokine production) ([3]; sample 1 ug/ml)	Mean (IFN-γ, ConA-induced cytokine production) ([3]; sample 10 ug/ml)	Mean (IFN-γ, ConA-induced cytokine production) ([3]; sample 100 ug/ml)	Mean (IL-2, ConA-induced cytokine production) ([4]; sample 0.001 ug/ml)	Mean (IL-2, ConA-induced cytokine production) ([4]; sample 0.01 ug/ml)	Mean (IL-2, ConA-induced cytokine production) ([4]; sample 0.1 ug/ml)	Mean (IL-2, ConA-induced cytokine production) ([4]; sample 1 ug/ml)	Mean (IL-2, ConA-induced cytokine production) ([4]; sample 10 ug/ml)	Mean (IL-2, ConA-induced cytokine production) ([4]; sample 100 ug/ml)	stimulation of the production of IFN-r by T cells ([3]; compared with Zadaxin, several experimental concentration)
CC[C@H](C)[C@H](NC(=O)[C@H](CCC(=O)O)NC(=O)[C@H](CO)NC(=O)[C@H](CO)NC(=O)[C@@H](NC(=O)[C@H](CC(=O)O)NC(=O)[C@@H](NC(=O)[C@H](C)NC(=O)[C@H](C)NC(=O)[C@H](CC(=O)O)NC(=O)[C@H](CO)NC(C)=O)C(C)C)[C@@H](C)O)C(=O)N[C@H](C(=O)N[C@H](C(=O)N[C@@H](CCCCN)C(=O)N[C@@H](CC(=O)O)C(=O)N[C@@H](CC(C)C)C(=O)N[C@@H](CCCCN)C(=O)N[C@@H](CCC(=O)O)C(=O)N[C@@H](CCCCN)C(=O)N[C@@H](CCCCN)C(=O)N[C@@H](CCC(=O)O)C(=O)N[C@H](C(=O)N[C@H](C(=O)N[C@@H](CCC(=O)O)C(=O)N[C@@H](CCC(=O)O)C(=O)N[C@@H](C)C(=O)N[C@@H](CCC(=O)O)C(=O)N[C@@H](CC(N)=O)C(=O)O)C(C)C)C(C)C)[C@@H](C)O)[C@@H](C)O [Zadaxin, thymosin alpha 1] (Ac-SDAAVDTSSEITTKDLKEKKEVVEEAEN-OH)	~120	2															
Ac-Ser-Asp-Ala-Ala-Val-Asp-Thr-Ser-Ser-Glu-Ile-Thr-Thr-Lys-Asp-Leu-Lys-Glu-Lys-Lys-Glu-Val-Val-Glu-Glu-Ala-Glu-Asn-Gly-Gly-Cys-PEG40K (Ac-SDAAVDTSSEITTKDLKEKKEVVEEAENGG-{C(branched 40K mPEG-maleimide)}) [T-GG-C-mPEG, thymosin alpha 1 peptide derivative modified with PEG; PEG40K: branched-chain (mPEG)2-MAL]			showed activity	more effective than the thymosin alpha 1 modified with PEG at the N-terminal	4703	4891	4654	4990	5102	5577	3409	3610	3530	3397	3618	3692	
PEG-TA1: thymosin alpha 1 modified with PEG (derivative when n was 0); b135 calls it modified at the N-terminal (SDAAVDTSSEITTKDLKEKKEVVEEAEN; not fully specified (N-terminus); ends and bridges not checked; also: PEG attached, site unclear; UniProt P06454 2-29, looked up)					4809	4603	4141	4949	3874	5467	3505	3438	3339	3214	3348	3582	more effective
